Test results from patent publication US20180327354A1, “Unnatural Analogues of Calcitriol and Uses Thereof” (Vidasym, Inc., priority 2009, published 2018).
“Also recorded” adds a separate entry of the source. Read-outs that look alike come from different tables or passages of the source.

Assays:
normal mice = assay: Hypercalcemic side effect profile and serum PTH in normal mice; type: in vivo, Male C57/BL mice; details: for dose at which compound starts to raise serum Ca: i.p. dosing once daily for 3 consecutive days
Procedure: The normal mice model is a convenient and quick way to assess the hypercalcemic side effect profile of compounds. At the same time, data on serum PTH can be collected.
Male C57/BL mice at 18-20 g are dosed with the test agent at 100 al/mouse (concentrations as indicated) i.p. once daily for 3 consecutive days or at 10 ml/kg, p.o. gavage, once daily for 5 days. The animals were harvested 24 h after the last dose by anesthetization with ketamine/xylazine. Blood was collected from the aorta. Serum total calcium was measured using the QuantiChrom Calcium Assay kit and/or the Roche Hitachi 912 Chemistry Analyzer. Serum PTH was measured using a PTH Immunoassay. Vehicle control was 100 l/mouse of 5% EtOH/95% propylene glycol for i.p. dosing or 10 ml/kg of 20% Hydroxypropyl-β-Cyclodextrin for p.o. gavage dosing.
For serum chemistry data, group mean±SEM are presented. Differences between vehicle and compound-treated groups are assessed using a one-way ANOVA followed by a Dunnett's post-hoc test. FIGS. 3A and 3B show the results from a typical p.o. gavage dosing study (n=4-9 per group).

[1] = Maximal absorbance wavelength and extinction coefficient (spectrophotometer scan); type: physicochemical; details: 100 μM in 50:50 de-ionized water and ethanol; for extinction coefficient: in M-1·cm-1 (unit assumed)
Procedure: To determine the maximal absorbance wavelength (ODmax) and the extinction coefficients for the compounds, each compound is diluted in a 50:50 solution (by volume) of de-ionized water and ethanol at 100 μM and scanned by a spectrophotometer.

CYP24A1 [2] = assay: CYP24A1 expression induction in HL-60 promyelocytic leukemia cells (real-time RT-PCR); type: cell-based; details: Homo sapiens; HL-60 cells, 24 h, mRNA normalized to GAPDH; Table 3 summary, some values average of 3 or more determinations; read-out: CYP24A1 EC50
Procedure: (§1) Some compounds were tested in HL-60 promyelocytic leukemia cells and a primary culture of human coronary artery smooth muscle cells (HCASMC) for CYP24A1 induction. It is well documented that CYP24A1 has a VDRE in its promoter region and is a specific target gene of VDR (Meyer et al., 2007, J Biol Chem 282: 22344-22352). […] Compounds also were tested in HCASMC for their effects in inducing VDR. To assess the suitability of a compound for modulating immune responses, compounds were tested in HL-60 for their effects in inducing CD14 expression. To assess the suitability of a compound for treating thrombosis, compounds also were tested in HCASMC for their effects in modulating thrombomodulin and thrombospondin-1.
(§2) Compounds are tested in human HL-60 promyelocytic leukemia cells to assess their potency in inducing the expression of CYP24A1 and CD14. HL-60 cells are cultured in IMDM supplemented with 20% heat-inactivated fetal bovine serum at 37° C. in a humidified 5% CO2-95% air atmosphere. Cells are plated into 6 well plates and treated with test agent for 24 h. Cells are lysed with the addition of 1 mL of Trizol and RNA prepared according to the manufacturer's protocol.
(§3) Real-time reverse transcription-PCR is performed with the forward and reverse PCR primers and 250 nM of the TAQMAN™ probe specifically designed for CYP24A1 or CD14. (A TAQMAN™ probe is comprised of a fluorophore covalently attached to the 5′-end of the oligonucleotide probe and a quencher at the 3′-end.) After the data acquisition, the CYP24A1 or CD14 mRNA expression level is normalized to the GAPDH mRNA level. FIGS. 2A and 2B show the results from a typical CYP24A1 (FIG. 2A) and CD14 (FIG. 2B) expression study.

CD14 = CD14 expression induction in HL-60 promyelocytic leukemia cells (real-time RT-PCR); type: cell-based; details: Homo sapiens; HL-60 cells, 24 h, mRNA normalized to GAPDH; Table 3 summary, some values average of 3 or more determinations; read-out: CD14 EC50
Procedure: as §1, §2, §3

thrombomodulin = assay: Thrombomodulin protein in human coronary artery smooth muscle cells (Western blot); type: cell-based; details: HCASMC, 48 h, FIG. 21B
Procedure: (§4) Human coronary artery smooth muscle cells (HCASM) were incubated with Vida-5 or Vida-11 at different concentrations for 48 h and then were solubilized in 50 al of SDS-PAGE sample buffer. The protein content in each sample was determined by the bicinchoninic acid protein assay. Samples were resolved by SDS-PAGE using a 4-12% NuPAGE gel, and proteins were electrophoretically transferred to polyvinylidene fluoride membrane for Western blotting. The membrane was blocked for 1 h at 25° C. with 5% nonfat dry milk in phosphate buffered saline Tween-20 (PBS-T) and then incubated with a mouse anti-thrombospondin-1 monoclonal antibody (2,000-fold dilution), or a mouse anti-TM monoclonal antibody (2,000-fold dilution) in PBS-T overnight at 4° C.
(§5) The membrane was washed with PBS-T and incubated with a horseradish peroxidase-labeled anti-mouse antibody for 1 h at 25° C. The membrane was then incubated with Amersham ECL Plus Western Blotting Detection Reagents. Specific bands were visualized by the Multiimage II of Alpha Innotech imaging system. Band intensity was quantified using Spot Denso.

VDR = VDR expression induction in primary culture of human coronary artery smooth muscle cells; type: cell-based; details: HCASMC, 24 h, Table 4 summary, some values average of 2 or more determinations, read-out: EC50 for VDR induction
Procedure: (§6) Compounds were tested in a primary culture of HCASMC to assess their potency in inducing the expression of CYP24A1 and VDR.
(§7) Primary culture of HCASMC was grown in smooth muscle growth medium SmGM-2 containing 5.5 mM glucose, 5% FBS, 50 μg/ml gentamicin, 50 ng/ml amphotericin-B, 5 μg/ml insulin, 2 ng/ml hFGF, and 0.5 ng/ml hEGF at 37° C. in a humidified 5% CO2-95% air. Cells were grown to >80% confluence and used within five passages.
(§8) Cells were plated into 6 well plates and treated with test agent for 24 h. Cells were lysed with the addition of 1 mL of Trizol and RNA prepared according to the manufacturer's protocol.
(§9) Real-time reverse transcription-PCR was performed with the forward and reverse PCR primers and […] of the TAQMAN™ probe specifically designed for CYP24A1 or VDR. (A TAQMAN™ probe is comprised of a fluorophore covalently attached to the 5′-end of the oligonucleotide probe and a quencher at the 3′-end.) After the data acquisition, the CYP24A1 or VDR mRNA expression level was normalized to the GAPDH mRNA level. […] Group mean±STDEV (standard deviation) are presented.

CYP24A1 [3] = assay: CYP24A1 expression induction in primary culture of human coronary artery smooth muscle cells; type: cell-based; details: HCASMC, 24 h, Table 4 summary, some values average of 2 or more determinations, read-out: EC50 for CYP24A1 induction
Procedure: as §6, §7, §8, §9

thrombospondin-1 = assay: Thrombospondin-1 protein in human coronary artery smooth muscle cells (Western blot); type: cell-based; details: HCASMC, 48 h, FIG. 21A
Procedure: as §4, §5

uremic rats = details: cited from earlier work
[4] = Slatopolsky et al., 1998, converted from ng/rat

Structure (SMILES)	dose at which compound starts to raise serum Ca (normal mice) [µg/kg]	maximal absorbance wavelength [1] [nm]	extinction coefficient [1]	EC50 (CYP24A1 [2]) [nM]	EC50 (CD14) [nM]	further results
C[C@@H](OCCC(C)(C)O)C1CCC2/C(=C/C=C3C[C@@H](O)C4(CC4)[C@H](O)C3)CCCC21C (stereo partly drawn) [Vida-1, (4R,8R)-6-((E)-2-((1S,7αS)-1-((R)-1-(3-hydroxy-3-methylbutoxy)ethyl)-7α-methyldihydro-1H-inden-4(2H, 5H, 6H, 7H, 7αH)-ylidene)ethylidene)spiro[2.5]octane-4,8-diol]	0.01	253	29550	69	22	–
C[C@@H](OC[C@H](C)C(C)(C)O)C1CCC2/C(=C/C=C3C[C@@H](O)C4(CC4)[C@H](O)C3)CCCC21C (stereo partly drawn) [Vida-4, (4R,8R)-6-((E)-2-((3αS,7αS)-1-((R)-1-((S)-3-hydroxy-2,3-dimethylbutoxy)ethyl)-7α-methyldihydro-1H-inden-4(2H, 5H, 6H, 7H, 7αH)-ylidene)ethylidene) spiro[2.5]octane-4,8-diol]	–	253	23610	190	31	fold less potent in raising serum Ca than Vida-1 (normal mice; i.p. dosing, FIG. 4): at least 100 fold
CCC(O)(CC)CCCO[C@H](C)C1CCC2/C(=C/C=C3C[C@@H](O)C4(CC4)[C@H](O)C3)CCCC21C (stereo partly drawn) [Vida-20, (4R,8R)-6-((E)-2-((1S,7αS)-1-((R)-1-(4-ethyl-4-hydroxyhexyloxy)ethyl)-7α-methyldihydro-1H-inden-4(2H, 5H, 6H, 7H, 7αH)-ylidene)ethylidene)spiro[2.5]octane-4,8-diol]	1	253	23340	6.7	1.6	–
C=C1[C@H](O)CC(=C/C=C2\CCCC3(C)C2CCC3[C@@H](C)OCCCC(O)(CC)CC)C[C@H]1O (stereo partly drawn) [Vida-21, (1R,3R)-5-((E)-2-((1S,7αS)-1-((R)-1-(4-ethyl-4-hydroxyhexyloxy)ethyl)-7α-methyldihydro-1H-inden-4(2H, 5H, 6H, 7H, 7αH)-ylidene)ethylidene)-2-methylenecyclohexane-1,3-diol]	0.1	253	58710	0.8	1.1	thrombomodulin protein expression (thrombomodulin): induce; also recorded: increased; EC50 (VDR): 2.5 nM; EC50 (CYP24A1 [3]): 1.8 nM; thrombospondin-1 protein expression (thrombospondin-1): suppress; also recorded: significantly reduced
C=C1[C@H](O)CC(=C/C=C2\CCC[C@]3(C)[C@@H]([C@H](C)COc4ccccc4)CC[C@@H]23)C[C@H]1O [Vida-36, (1R,3R)-5-((E)-2-((1R,3αS,7αR)-7α-methyl-1-((S)-1-phenoxypropan-2-yl)dihydro-1H-inden-4(2H, 5H, 6H, 7H, 7αH)-ylidene)ethylidene)-2-methylenecyclohexane-1,3-diol]	–	254	26850	249000	34000	–
C=C1[C@H](O)CC(=C/C=C2\CCCC3(C)C2CCC3[C@@H](C)COc2cccc(C(C)(C)O)c2)C[C@H]1O (stereo partly drawn) [Vida-37, (1R,3R)-5-((E)-2-(1-((R)-1-(3-(2-hydroxypropan-2-yl)phenoxy)propan-2-yl)-7α-methyldihydro-1H-inden-4(2H, 5H, 6H, 7H, 7αH)-ylidene)ethylidene)-2-methylenecyclohexane-1,3-diol]	10	254	25720	6.1	12	–
C=C1[C@H](O)CC(=C/C=C2\CCCC3(C)C2CCC3[C@@H](C)CSc2cccc(C(C)(C)O)c2)C[C@H]1O (stereo partly drawn) [Vida-43, (1R,3R)-5-((E)-2-(1-((R)-1-(3-(2-hydroxypropan-2-yl)phenylthio)propan-2-yl)-7α-methyldihydro-1H-inden-4(2H, 5H, 6H, 7H, 7αH)-ylidene)ethylidene)-2-methylenecyclohexane-1,3-diol]	–	254	43580	6.9	63	–
C[C@@H](COc1cccc(C(C)(C)O)c1)[C@H]1CC[C@H]2/C(=C/C=C3C[C@@H](O)C4(CC4)[C@H](O)C3)CCC[C@]12C [Vida-57, (4R,8R)-6-((E)-2-(1-((R)-1-(3-(2-hydroxypropan-2-yl)phenoxy)propan-2-yl)-7-methyldihydro-1H-inden-4(2H,5H,6H, 7H,7αH)-ylidene)ethylidene)spiro[2.5]octane-4,8-diol]	–	253	49670	36	21	–
C[C@@H](CSc1cccc(C(C)(C)O)c1)C1CCC2/C(=C/C=C3C[C@@H](O)C4(CC4)[C@H](O)C3)CCCC21C (stereo partly drawn) [Vida-58, (4R,8R)-6-((E)-2-(1-((R)-1-(3-(2-hydroxypropan-2-yl)phenylthio)propan-2-yl)-7α-methyldihydro-1H-inden-4(2H,5H,6H, 7H, 7αH)-ylidene)ethylidene)spiro[2.5]octane-4,8-diol]	–	–	–	49	125	–
C=C1/C(=C\C=C2/CCC[C@]3(C)[C@@H]([C@H](C)CCCC(C)(C)O)CC[C@@H]23)C[C@@H](O)C[C@@H]1O [calcitriol, 1,25-dihydroxyvitamin D3]	–	–	–	–	–	dose at which compound raises serum Ca (uremic rats; [4]): ~0.01 µg/kg; dose at which compound starts to suppress serum PTH (uremic rats; [4]): ~0.02 µg/kg; dose at which compound raises serum Ca (uremic rats; Slatopolsky et al., 1998): 4 ng/rat; dose at which compound starts to suppress serum PTH (uremic rats; Slatopolsky et al., 1998): 8 ng/rat
